Source: ChEMBL document CHEMBL1148822, “Principal component analysis differentiates the receptor binding profiles of three antipsychotic drug candidates from current antipsychotic drugs” (J Med Chem, 2007)
Calls of active or inactive are those of the source.

Tests used:
[1] = biological target: 5-hydroxytryptamine receptor 6 (Homo sapiens, UniProt P50406); settings: HEK293
Description: Displacement of [3H]LSD from human 5HT6 receptor expressed in HEK293 cells

[2] = biological target: T1, 5-hydroxytryptamine receptor 2C (Homo sapiens) (UniProt P28335); settings: CHO
T1 sequence (whole entry): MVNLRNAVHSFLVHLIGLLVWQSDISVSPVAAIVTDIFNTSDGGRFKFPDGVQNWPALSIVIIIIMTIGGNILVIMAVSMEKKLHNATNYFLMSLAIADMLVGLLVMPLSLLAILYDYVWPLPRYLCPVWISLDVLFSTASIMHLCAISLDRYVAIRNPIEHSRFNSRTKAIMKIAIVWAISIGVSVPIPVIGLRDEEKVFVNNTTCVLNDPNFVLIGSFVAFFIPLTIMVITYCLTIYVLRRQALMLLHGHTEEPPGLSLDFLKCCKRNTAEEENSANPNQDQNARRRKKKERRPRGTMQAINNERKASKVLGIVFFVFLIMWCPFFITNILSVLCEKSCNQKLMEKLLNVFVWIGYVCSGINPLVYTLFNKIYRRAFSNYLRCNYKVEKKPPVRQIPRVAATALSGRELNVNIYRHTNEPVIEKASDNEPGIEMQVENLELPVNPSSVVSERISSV
Description: Displacement of [3H]mesulergine from 5HT2C receptor expressed in CHO cells

[3] = biological target: 5-hydroxytryptamine receptor 2B (Homo sapiens, UniProt P41595); settings: CHO
Chain of 5-hydroxytryptamine receptor 2B (P41595 whole entry): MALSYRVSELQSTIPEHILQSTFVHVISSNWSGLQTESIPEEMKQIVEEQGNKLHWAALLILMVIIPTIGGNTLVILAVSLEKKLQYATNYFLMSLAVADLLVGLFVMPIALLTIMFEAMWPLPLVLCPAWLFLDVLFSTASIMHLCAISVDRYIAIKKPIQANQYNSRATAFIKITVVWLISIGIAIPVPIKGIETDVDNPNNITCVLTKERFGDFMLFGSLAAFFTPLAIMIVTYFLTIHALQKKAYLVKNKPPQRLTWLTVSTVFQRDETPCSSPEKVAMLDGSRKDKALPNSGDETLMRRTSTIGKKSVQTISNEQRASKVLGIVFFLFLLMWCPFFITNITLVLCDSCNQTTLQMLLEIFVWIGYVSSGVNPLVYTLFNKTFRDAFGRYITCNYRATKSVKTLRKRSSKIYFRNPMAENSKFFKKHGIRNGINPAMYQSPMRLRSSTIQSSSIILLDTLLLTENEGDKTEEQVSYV
Description: Displacement of [3H]LSD from 5HT2B receptor expressed in CHO cells

Measured: Activity

Chain of 5-hydroxytryptamine receptor 6 (P50406 whole entry): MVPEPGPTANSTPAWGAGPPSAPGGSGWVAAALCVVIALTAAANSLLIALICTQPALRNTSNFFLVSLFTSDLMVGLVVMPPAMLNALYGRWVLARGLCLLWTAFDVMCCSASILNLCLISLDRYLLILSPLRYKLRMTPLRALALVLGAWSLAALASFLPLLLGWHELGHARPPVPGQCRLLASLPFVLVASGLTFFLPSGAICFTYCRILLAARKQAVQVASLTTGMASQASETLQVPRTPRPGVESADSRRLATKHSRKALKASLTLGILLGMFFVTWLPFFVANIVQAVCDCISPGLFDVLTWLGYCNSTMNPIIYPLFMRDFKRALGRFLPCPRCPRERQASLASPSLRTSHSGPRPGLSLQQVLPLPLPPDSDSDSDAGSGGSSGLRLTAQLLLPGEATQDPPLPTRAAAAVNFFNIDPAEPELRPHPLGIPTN

O=C(CCCN1CCC(O)(c2ccc(Cl)cc2)CC1)c1ccc(F)cc1
inactive: all assays above
